# Source: patent US20210254272A1, “TEXTILES HAVING ANTIMICROBIAL PROPERTIES” (Livinguard AG, priority 2015, published 2021)
# Tested on: E. coli (ATCC 25922)
# Assay: AATCC Test Method 100-2012 antibacterial activity of the treated textile, after 25 washes and 12 abrasion cycles, contact time 60 minutes
# Type: cell-based
# Settings: for Log reduction of antimicrobial performance: 1% o.w.f; for Log reduction of antimicrobial performance in 100 GSM cotton fabric / Log reduction of antimicrobial performance in 300 GSM cotton fabric: 2 min
# Protocol: The antibacterial activity of the textile was tested in accordance with AATCC Test Method 100-2012. Prior to the test, the fabric was cut into coupons of 2×4 inches and washed separately 25 times, and exposed to 12 abrasion cycles, as per US EPA protocol 90072PA4 (described further below). The tests were made against E. coli (ATCC 25922). Contact time was 60 minutes, after inoculating with 10^8 CFU per coupon.
# [1] = exhaust 80° C., 60 min, curing 180° C., dosage 0.1% o.w.f
# [2] = exhaust 80° C., 60 min, curing 180° C., dosage 0.2% o.w.f
# [3] = exhaust 80° C., 60 min, curing 180° C., dosage 0.5% o.w.f
# [4] = exhaust 80° C., 60 min, curing 180° C., dosage 0.8% o.w.f
# [5] = exhaust 80° C., 60 min, curing 180° C., dosage 1.0% o.w.f
substance,measurement,setting,value
polyglucosamine [chitosan],Log reduction of antimicrobial performance of each active ingredient,"exhaust 60° C., solution dosage 1% o.w.f, process time 60 min",1.4 Log
same,Log reduction of antimicrobial performance of each active ingredient,"exhaust 60° C., solution dosage 1% o.w.f, process time 90 min",1.5 Log
same,Log reduction of antimicrobial performance of each active ingredient,"exhaust 60° C., solution dosage 1% o.w.f, process time 120 min",1.6 Log
same,Log reduction of antimicrobial performance of each active ingredient,"exhaust 60° C., solution dosage 1% o.w.f, process time 180 min",1.7 Log
same,Log reduction of antimicrobial performance of each active ingredient,"exhaust 60° C., solution dosage 1% o.w.f, process time 240 min",1.65 Log
same,Log reduction of antimicrobial performance,"exhaust 80° C., 60 min, curing 170° C., curing dwell time 0.5 min",0.3 Log
same,Log reduction of antimicrobial performance,"exhaust 80° C., 60 min, curing 170° C., curing dwell time 1.0 min",0.7 Log
same,Log reduction of antimicrobial performance,"exhaust 80° C., 60 min, curing 170° C., curing dwell time 1.5 min",0.7 Log
same,Log reduction of antimicrobial performance,"exhaust 80° C., 60 min, curing 170° C., curing dwell time 2.0 min",1.4 Log
same,Log reduction of antimicrobial performance,"exhaust 80° C., 60 min, curing 170° C., curing dwell time 2.5 min",1.3 Log
same,Log reduction of antimicrobial performance,"exhaust 80° C., 60 min, curing 170° C., curing dwell time 3.0 min",0.64 Log
same,Log reduction of antimicrobial performance,"exhaust 80° C., 60 min, curing 180° C., curing dwell time 0.5 min",1.4 Log
same,Log reduction of antimicrobial performance,"exhaust 80° C., 60 min, curing 180° C., curing dwell time 1.0 min",1.5 Log
same,Log reduction of antimicrobial performance,"exhaust 80° C., 60 min, curing 180° C., curing dwell time 1.5 min",1.6 Log
same,Log reduction of antimicrobial performance,"exhaust 80° C., 60 min, curing 180° C., curing dwell time 2.0 min",3.5 Log
same,Log reduction of antimicrobial performance,"exhaust 80° C., 60 min, curing 180° C., curing dwell time 2.5 min",3.5 Log
same,Log reduction of antimicrobial performance,"exhaust 80° C., 60 min, curing 180° C., curing dwell time 3.0 min",3.4 Log
same,Log reduction of antimicrobial performance,"exhaust 80° C., 60 min, curing 190° C., curing dwell time 0.5 min",0.3 Log
same,Log reduction of antimicrobial performance,"exhaust 80° C., 60 min, curing 190° C., curing dwell time 1.0 min",1.2 Log
same,Log reduction of antimicrobial performance,"exhaust 80° C., 60 min, curing 190° C., curing dwell time 1.5 min",1.4 Log
same,Log reduction of antimicrobial performance,"exhaust 80° C., 60 min, curing 190° C., curing dwell time 2.0 min",2.66 Log
same,Log reduction of antimicrobial performance,"exhaust 80° C., 60 min, curing 190° C., curing dwell time 2.5 min",2.31 Log
same,Log reduction of antimicrobial performance,"exhaust 80° C., 60 min, curing 190° C., curing dwell time 3.0 min",1.3 Log
same,Log reduction of antimicrobial performance,"exhaust 80° C., 60 min, curing temperature 100 ° C.",0.16 Log
same,Log reduction of antimicrobial performance,"exhaust 80° C., 60 min, curing temperature 120 ° C.",0.23 Log
same,Log reduction of antimicrobial performance,"exhaust 80° C., 60 min, curing temperature 140 ° C.",0.88 Log
same,Log reduction of antimicrobial performance,"exhaust 80° C., 60 min, curing temperature 160 ° C.",1.34 Log
same,Log reduction of antimicrobial performance,"exhaust 80° C., 60 min, curing temperature 165 ° C.",1.38 Log
same,Log reduction of antimicrobial performance,"exhaust 80° C., 60 min, curing temperature 170 ° C.",1.48 Log
same,Log reduction of antimicrobial performance,"exhaust 80° C., 60 min, curing temperature 175 ° C.",2.41 Log
same,Log reduction of antimicrobial performance,"exhaust 80° C., 60 min, curing temperature 180 ° C.",2.67 Log
same,Log reduction of antimicrobial performance,"exhaust 80° C., 60 min, curing temperature 185 ° C.",2.68 Log
same,Log reduction of antimicrobial performance,"exhaust 80° C., 60 min, curing temperature 190 ° C.",2.69 Log
same,Log reduction of antimicrobial performance,"exhaust 80° C., 60 min, curing temperature 195 ° C.",2.71 Log
same,Log reduction of antimicrobial performance in 100 GSM cotton fabric,[1],0.63 Log
same,Log reduction of antimicrobial performance in 300 GSM cotton fabric,[1],0.65 Log
same,Log reduction of antimicrobial performance in 100 GSM cotton fabric,[2],1.37 Log
same,Log reduction of antimicrobial performance in 300 GSM cotton fabric,[2],1.38 Log
same,Log reduction of antimicrobial performance in 100 GSM cotton fabric,[3],1.91 Log
same,Log reduction of antimicrobial performance in 300 GSM cotton fabric,[3],1.91 Log
same,Log reduction of antimicrobial performance in 100 GSM cotton fabric,[4],2.21 Log
same,Log reduction of antimicrobial performance in 300 GSM cotton fabric,[4],2.21 Log
same,Log reduction of antimicrobial performance in 100 GSM cotton fabric,[5],2.71 Log
same,Log reduction of antimicrobial performance in 300 GSM cotton fabric,[5],2.72 Log
same,Log reduction of antimicrobial performance of each active ingredient,"exhaust 80° C., 60 min, dosage 1% o.w.f (test up to 5% o.w.f)",2.45 Log
same,Log reduction of antimicrobial performance of each active ingredient,"exhaust 80° C., 60 min, dosage 2% o.w.f",2.46 Log
same,Log reduction of antimicrobial performance of each active ingredient,"exhaust 80° C., 60 min, dosage 3% o.w.f",2.47 Log
same,Log reduction of antimicrobial performance of each active ingredient,"exhaust 80° C., 60 min, dosage 4% o.w.f",2.47 Log
same,Log reduction of antimicrobial performance of each active ingredient,"exhaust 80° C., 60 min, dosage 5% o.w.f",2.47 Log
same,Log reduction of antimicrobial performance of each active ingredient,"exhaust 80 ° C., solution dosage 1% o.w.f, process time 10 min",0.67 Log
same,Log reduction of antimicrobial performance of each active ingredient,"exhaust 80 ° C., solution dosage 1% o.w.f, process time 20 min",1.13 Log
same,Log reduction of antimicrobial performance of each active ingredient,"exhaust 80 ° C., solution dosage 1% o.w.f, process time 30 min",1.43 Log
same,Log reduction of antimicrobial performance of each active ingredient,"exhaust 80 ° C., solution dosage 1% o.w.f, process time 40 min",1.73 Log
same,Log reduction of antimicrobial performance of each active ingredient,"exhaust 80 ° C., solution dosage 1% o.w.f, process time 50 min",2.45 Log
same,Log reduction of antimicrobial performance of each active ingredient,"exhaust 80 ° C., solution dosage 1% o.w.f, process time 60 min",2.67 Log
same,Log reduction of antimicrobial performance of each active ingredient,"exhaust 80 ° C., solution dosage 1% o.w.f, process time 70 min",2.68 Log
same,Log reduction of antimicrobial performance of each active ingredient,"exhaust 80 ° C., solution dosage 1% o.w.f, process time 80 min",2.72 Log
